According to PMC4467398, “Preclinical antitumor activity of ST7612AA1: a new oral thiol-based histone deacetylase (HDAC) inhibitor” (Oncotarget, 2014):

Tested on: DOHH2 and TMD8 DLBCL cells
Experiment: Gene expression profiling (HumanHT-12 v4 BeadChip, limma), ST7612AA1 300 nM 8 hrs vs DMSO
Type: cell-based, human
Details: 300 nM 8 hrs vs DMSO

SMILES: CC(=O)SCCCCC[C@H](NC(=O)[C@H]1CCC(=O)N1)C(=O)Nc1ccccc1 [ST7612AA1]
- log ratio POGK (ILMN_1756669): -8.84E-01
- log ratio POLR1C (ILMN_1746686): -8.40E-01
- log ratio PPP1R13B (ILMN_1748831): 6.43E-01
- log ratio PPP2R1A (ILMN_1810467): -5.99E-01
- log ratio PPRC1 (ILMN_1796210): -1.03E+00
- log ratio PRDM10 (ILMN_2352293): -8.83E-01
- log ratio PRDX2 (probe ILMN_1767766): 8.35E-01
- log ratio PRDX2 (probe ILMN_2382829): 7.41E-01
- log ratio PRKAR1B (ILMN_1674390): -8.76E-01
- log ratio PRKCB1 (ILMN_1806908): 6.12E-01
- log ratio PRMT3 (ILMN_1662964): -1.23E+00
- log ratio PSMB5 (ILMN_1744649): -9.34E-01
- log ratio PSMB10 (ILMN_1683026): -8.38E-01
- log ratio PSMG4 (ILMN_3224204): -5.99E-01
- log ratio PTGER4 (probe ILMN_1795930): 9.03E-01
- log ratio PTMS (ILMN_1721046): 6.73E-01
- log ratio PTPN7 (ILMN_1715214): -6.16E-01
- log ratio PTS (ILMN_2162328): -8.08E-01
- log ratio PTTG1 (probe ILMN_1753196): 6.92E-01
- log ratio PTTG1IP (ILMN_1802251): 6.45E-01
- log ratio PTTG1IP (ILMN_2128750): 6.16E-01
- log ratio PTTG3P (ILMN_2049021): 6.08E-01
- log ratio QTRTD1 (ILMN_2155516): -7.99E-01
- log ratio RAB8B (probe ILMN_2173004): 8.71E-01
- log ratio RAB11FIP2 (ILMN_2072541): -5.92E-01
- log ratio RAB11FIP5 (ILMN_1740604): 6.69E-01
- log ratio RAB24 (probe ILMN_2379718): 7.77E-01
- log ratio RABEPK (ILMN_1741957): -9.81E-01
- log ratio RABGAP1 (probe ILMN_2061950): 6.86E-01
- log ratio RAD9A (ILMN_1684183): 6.33E-01
- log ratio RAN (ILMN_1757384): -8.66E-01
- log ratio RAPGEF2 (probe ILMN_3247261): 8.54E-01
- log ratio RASAL1 (probe ILMN_1793517): 7.10E-01
- log ratio RASD2 (probe ILMN_2170209): 7.75E-01
- log ratio RASGRP3 (ILMN_1727045): -9.48E-01
- log ratio RASL10A (ILMN_1747673): 6.25E-01
- log ratio RASSF2 (ILMN_1709683): -8.05E-01
- log ratio RBM23 (ILMN_1780756): -8.92E-01
- log ratio RBM23 (ILMN_2363106): -9.17E-01
- log ratio RBM38 (ILMN_2404049): 6.27E-01
- log ratio RCAN1 (ILMN_2367239): 6.08E-01
- log ratio RCC2 (ILMN_1720124): -8.76E-01
- log ratio REEP2 (probe ILMN_1666057): 6.85E-01
- log ratio RFC1 (probe ILMN_2217935): 7.23E-01
- log ratio RGS19 (ILMN_1677085): -9.37E-01
- log ratio RHBDD2 (probe ILMN_1809437): 7.80E-01
- log ratio RHBDD2 (probe ILMN_2406410): 8.04E-01
- log ratio RHOBTB3 (probe ILMN_1744949): 8.25E-01
- log ratio RHOC (probe ILMN_1673305): 9.02E-01
- log ratio RIOK3 (ILMN_2404135): 5.99E-01
- log ratio RNASE4 (probe ILMN_1776602): 7.33E-01
- log ratio RND2 (probe ILMN_1736533): 7.06E-01
- log ratio RNF24 (probe ILMN_1717809): 7.24E-01
- log ratio RNF135 (ILMN_1700660): -6.19E-01
- log ratio RNFT2 (ILMN_3299905): 6.00E-01
- log ratio RPIA (ILMN_1714809): -9.23E-01
- log ratio RPL29 (ILMN_1737517): -1.05E+00
- log ratio RPL29 (ILMN_1771051): -1.03E+00
- log ratio RPL36A (ILMN_2112811): -6.12E-01
- log ratio RPP40 (ILMN_1810423): -1.07E+00
- log ratio RPRD2 (ILMN_3238889): -7.98E-01
- log ratio RPS6KA4 (ILMN_1756204): -7.98E-01
- log ratio RRBP1 (ILMN_2360784): 6.39E-01
- log ratio RRS1 (ILMN_1767658): -7.92E-01
- log ratio RTN2 (probe ILMN_1749115): 8.60E-01
- log ratio RTN3 (probe ILMN_2363065): 7.08E-01
- log ratio S100A4 (ILMN_1688780): 6.50E-01
- log ratio SALL2 (ILMN_1740842): 6.64E-01
- log ratio SBK1 (probe ILMN_1728298): 8.80E-01
- log ratio SCARNA11 (probe ILMN_3236010): 6.95E-01
- log ratio SCARNA13 (probe ILMN_3235325): 7.18E-01
- log ratio SCARNA14 (probe ILMN_3247636): 7.31E-01
- log ratio SCARNA23 (ILMN_3243966): 6.49E-01
- log ratio SCD5 (ILMN_2237428): 6.35E-01
- log ratio SDCBP (probe ILMN_2363586): 8.86E-01
- log ratio SDCBP (probe ILMN_2363591): 8.22E-01
- log ratio SDHA (ILMN_1744210): 6.20E-01
- log ratio SDHAP2 (probe ILMN_3248781): 7.07E-01
- log ratio SEMA4D (probe ILMN_1687533): 7.86E-01
- log ratio SEMA4F (probe ILMN_1805007): 7.51E-01
- log ratio SENP6 (ILMN_2054233): -8.91E-01
- log ratio SEPHS1 (ILMN_1673369): -1.31E+00
- log ratio SEPHS1 (ILMN_2176768): -1.36E+00
- log ratio SEPHS2 (ILMN_1687824): 6.78E-01
- log ratio SERPINB9 (probe ILMN_1742052): 7.55E-01
- log ratio SERPINI1 (probe ILMN_1814333): 7.79E-01
- log ratio SESN1 (ILMN_1800626): 5.92E-01
- log ratio SETMAR (ILMN_1682404): -7.84E-01
- log ratio SFRS7 (ILMN_1778836): -6.07E-01
- log ratio SFXN4 (ILMN_2363361): -9.20E-01
- log ratio SGK (probe ILMN_1702487): 8.82E-01
- log ratio SGSH (ILMN_2133675): 5.92E-01
- log ratio SH3GLB2 (probe ILMN_2158336): 6.85E-01
- log ratio SLC5A6 (ILMN_1741054): -9.72E-01
- log ratio SLC7A1 (ILMN_1683859): -6.20E-01
- log ratio SLC23A2 (probe ILMN_1746578): 7.82E-01
- log ratio SLC25A4 (probe ILMN_1681670): 8.53E-01
- log ratio SLC25A4 (probe ILMN_2211780): 7.98E-01
- log ratio SLC25A13 (ILMN_1668012): -8.15E-01
- log ratio SLC25A23 (probe ILMN_1679949): 7.04E-01
- log ratio SLC35F2 (ILMN_2075189): -9.03E-01
- log ratio SLC38A1 (ILMN_1769911): -9.30E-01
- log ratio SLC38A5 (ILMN_1695058): -1.13E+00
- log ratio SLC39A3 (ILMN_2234970): 6.58E-01
- log ratio SLC39A10 (ILMN_1656129): -5.93E-01
- log ratio SLC43A3 (ILMN_1658407): -9.67E-01
- log ratio SLC43A3 (ILMN_2330307): -8.92E-01
- log ratio SLC44A2 (probe ILMN_1771987): 7.92E-01
- log ratio SLC45A3 (probe ILMN_1726114): 7.11E-01
- log ratio SLFN11 (ILMN_2162860): 6.41E-01
- log ratio SLFN11 (probe ILMN_1752520): 7.62E-01
- log ratio SLTM (ILMN_1742224): -9.17E-01
- log ratio SLTM (ILMN_2395204): -8.02E-01
- log ratio SMG5 (ILMN_2126239): -9.35E-01
- log ratio SNAP23 (probe ILMN_1687519): 8.74E-01
- log ratio SNHG3-RCC1 (ILMN_1707493): -9.37E-01
- log ratio SNORA76 (ILMN_3237562): -5.92E-01
- log ratio SNORA80 (ILMN_3238554): 6.42E-01
- log ratio SNORD31 (probe ILMN_2072391): 7.85E-01
- log ratio SNORD65 (ILMN_3246353): -8.36E-01
- log ratio SNUPN (ILMN_1733932): -7.98E-01
- log ratio SNUPN (ILMN_2364535): -8.42E-01
- log ratio SNX29 (ILMN_1659761): 6.78E-01
- log ratio SORT1 (probe ILMN_1707077): 8.42E-01
- log ratio SPAG1 (ILMN_2367681): 5.96E-01
- log ratio SPAG7 (ILMN_1684446): -8.14E-01
- log ratio SPAG9 (ILMN_1799104): 6.26E-01
- log ratio SPAG9 (probe ILMN_2263718): 7.33E-01
- log ratio SPI1 (ILMN_2392043): -6.03E-01
- log ratio SPINT2 (probe ILMN_1800739): 8.11E-01
- log ratio SPRY1 (ILMN_2329914): 6.03E-01
- log ratio SREBF1 (probe ILMN_1663035): 7.22E-01
- log ratio SRGN (probe ILMN_1760347): 7.62E-01
- log ratio SRGN (probe ILMN_2169152): 7.60E-01
- log ratio SRP72 (ILMN_1683888): -5.90E-01
- log ratio SSPN (ILMN_1775486): -1.34E+00
- log ratio STAG2 (ILMN_1782609): -9.17E-01
- log ratio STARD10 (probe ILMN_1717052): 8.01E-01
- log ratio STK17B (probe ILMN_1798543): 7.91E-01
- log ratio STMN3 (probe ILMN_3244117): 9.01E-01
- log ratio STX3 (probe ILMN_1659544): 8.71E-01
- log ratio SUMO3 (ILMN_1725642): -9.81E-01
- log ratio SUSD3 (probe ILMN_1785570): 8.58E-01
- log ratio SYNGR1 (ILMN_1810875): 6.25E-01
- log ratio TACC1 (probe ILMN_1770084): 7.64E-01
- log ratio TACO1 (ILMN_1685112): -6.19E-01
- log ratio TADA1L (ILMN_1776487): -6.14E-01
- log ratio TANK (probe ILMN_1715069): 8.21E-01
- log ratio TBC1D7 (probe ILMN_1661622): 7.33E-01
- log ratio TBC1D16 (probe ILMN_1758457): 7.24E-01
